Reference: patent US8088742B2, “Polyol-glycoside compositions for the skin” (Societe d'Exploitation de Produits pour les Industries …, priority 2002, dated 2012)

Experiments:
[1] = system: skin (epidermis) in a normal volunteer; assay: In vivo measurement of the moisturization of the skin with Hydrascan; design: species or system human; conditions: for Degree of moisturization of the skin measured with Hydrascan, Cycle 1: stratum corneum + superficial epidermis / Degree of moisturization of the skin measured with Hydrascan, Cycle 2: superficial + middle epidermis / Degree of moisturization of the skin measured with Hydrascan, Cycle 3: entire epidermis: percentage increase relative to placebo zone, topical 20 mg/cm2, 8 h after application, mean of six volunteers; for Degree of moisturization of the skin measured with Hydrascan, Cycle 1: stratum corneum + superficial epidermis / Degree of moisturization of the skin measured with Hydrascan, Cycle 2: superficial + middle epidermis / Degree of moisturization of the skin measured with Hydrascan, Cycle 3: entire epidermis / effect on the degree of moisturization of the epidermis (in words): 3% in cream gel; for effect on the degree of moisturization of the epidermis (in words): 8 h after application
Method: A-In Vivo Measurement of the Moisturization of the Skin in a Normal Volunteer by Means of […] effect on the degree of moisturization of the skin of various polyol-glycosides according to the invention, of glyceryl glucoside and of various polyols was measured and compared in humans. […] This device comprises a micro-effusimeter connected to a flexible sensor and makes it possible to produce a thermal wave which propagates within the epidermis, and to register the variation in temperature during the pulse. […] 5% (weight/volume) of Lanol® 99 (isononyl isononanoate); 0.5% (weight/volume) of […]® HB (phenoxy-ethanol, methyl-, ethyl-, propyl-, butylparaben). A cream gel having the same composition but containing no test product is used as a placebo. The study is carried out on three groups of six volunteers, as a double-blind study, i.e. neither the experimenter nor the volunteer knows the identity of the test product. The following four skin zones are defined on the forearms of each volunteer: The products are applied topically at a rate of 20 mg/cm^2, the measurements being carried out 8 h after application. […] The degree of moisturization is measured by means of […]®, on each skin zone defined above, the values obtained for each of the three cycles being recorded and expressed as percentage increase in moisturization of the skin relative to the zone treated with the placebo.

[2] = system: normal human dermal fibroblast cultures; assay: In vitro measurement of the production of hyaluronic acid in fibroblast cultures; format: cell-based; conditions: 5 days of incubation; for effect on the amount of extracellular hyaluronic acid (in words): 0.01% and 0.1% (w/v)
Method: B—In Vitro Measurement of the Effect of the Polyol-Glycosides According to the Invention on the Production of Hyaluronic Acid
To confirm the moisturizing activity of the polyol-glycosides according to the invention, the effect of these products on the amount of hyaluronic acid was measured. It is in fact known that hyaluronic acid is a major non-sulfated glycosaminoglycan which plays an essential role in moisturizing the skin, by means of its ability to attach up to 1000 times its weight in water.
The amount of hyaluronic acid is measured in normal human dermal fibroblast cultures.
The cells are incubated for 5 days in the presence of the test products solubilized in the incubation medium.
At the end of this incubation, the extracellular media, into which the hyaluronic acid is secreted, are removed.
The hyaluronic acid is stained with a specific dye, STAINS ALL ((1-ethyl-2-[3-(1-ethylnaphtho[1,2-d]thiazolin-2-ylidene)-2-methylpropenyl]naphtho[1,2-d]thiazolium) bromide, provided by Sigma), which interacts with the hyaluronic acid to produce a change of absorption spectrum between 620 and 660 nm, observed by means of a spectrophotometer. A standard range of hyaluronic acid is effected in parallel.
The polyols and the polyol-glucosides are tested in aqueous solution at 0.01% and 0.1% (w/v).
D0: seeding of the fibroblasts (24-well culture plates, 15 300 cells/well);
D3: incubation of the products tested, diluted in the fibroblast incubation medium;
D8: removal of the fibroblast incubation media, assaying of the hyaluronic acid.
At the end of the 5 days of incubation in the presence of the products, the incubation media are removed and incubated in the presence of STAINS ALL. The colorimetric reaction is visualized by adding water.
The quantification is carried out by spectrophotometry for a wavelength of 630 nm.
A standard range of hyaluronic acid (0 to 12.5 μg/ml) is effected in parallel.
The results are expressed in μg/ml of extracellular hyaluronic acid.
The results which were obtained, expressed as percentage increase in the amount of extracellular hyaluronic acid relative to the control group, are reported in the following table: […]

[3] = system: human skin explant; assay: In vitro measurement of the synthesis of epidermal ceramides in human skin explant model; format: cell-based; conditions: for effect on the neosynthesis of ceramides 1 and 2 (in words): 24 hours on human skin explants; for percentage increase in the amount of ceramide 1 relative to the control group / percentage increase in the amount of ceramide 2 relative to the control group: topical 3% in cream gel (EGF 10 ng/ml in culture medium), 24 hours, 14C-acetate labeling
Method: C—In Vitro Measurement of the Xylityl Glucoside According to the Invention on the Synthesis of Epidermal Ceramides
The study is carried out in vitro in a human skin explant model. The products, formulated at 3% in a cream gel, are applied to the surface of the skin explants for 24 hours. The neosynthesis of the epidermal lipids is studied by radioactive labeling (carbon 14-labeled acetate) of the neosynthesized lipids, followed by thin layer chromatography to separate the various types of lipids and in particular the ceramides.
The xylityl glucoside according to example 1 of the invention, formulated at 3% in a cream gel comprising 2% of Sepigel® 305, 5% of Lanol 99, and qs of water.
Epidermal growth factor (EGF), known to increase the synthesis of ceramides, which constitutes a reference molecule for this test. The EGF is tested at 10 ng/ml in the skin explant culture medium.
A commercially available formulation containing lactic acid, which constitutes a reference for the test, lactic acid being known to increase the synthesis of ceramides.
The study is carried out on disks of human skin originating from cosmetic surgery (abdominoplasty, person). Disks 8 mm in diameter are produced using a hole punch and deposited onto culture inserts placed in culture wells containing an appropriate nutritive medium (MEM/M199 medium (¾, ¼, v/v) supplemented with penicillin (50 IU/ml, streptomycin (50 μg/ml), sodium bicarbonate (0.2% w/v), serum (2% v/v) and carbon 14-labeled acetate (1 μCi/ml)).
The products are tested by topical application (except for the EGF) for 24 hours.
At the end of the 24 hours of incubation, the skin explants are rinsed with phosphate buffered saline. For each disk of skin, the dermis is dissociated from the epidermis by controlled heat shock (1 min at 70° C.). The epidermal lipids are extracted by a partition between an organic phase (methanol/chloroform (1:2)) and an aqueous phase (0.25 M potassium chloride). The organic phase is then evaporated under vacuum and the residue is taken up in a chloroform/methanol (2:1) mixture.
The various epidermal lipids are then separated by thin layer chromatography (silica 60): chloroform/acetone/methanol (38:2:10); chloroform/acetone/methanol (40:5:5); chloroform/ethyl acetate/diethyl ether/methanol (36:10:3:1). The radioactivity of the fractions thus separated is counted with a radioactivity analyzer (Storm, Amersham).
The results are expressed as % variation relative to the control group.

[4] = system: skin; assay: Evaluation on the skin of acute skin irritation (Primary Cutaneous Irritation index); format: in vivo; conditions: for PCI index: Primary Cutaneous Irritation index; for Irritation classification: scale of the protocol in Journal Officiel de la République Francaise of Feb. 21, 1982
Method: The skin tolerance of the various polyol-glycosides was evaluated by means of a study of “evaluation on the skin of acute skin irritation”, carried out by an independent pharmaceutical and cosmetic consultancy-expertise company.
The Primary Cutaneous Irritation (PCI) index measurements, carried out according to the same protocol, are contained in the following table:
Each compound studied is classified, in view of the results obtained under the selected experimental conditions, nonirritant for the skin, with reference to the scale proposed in the protocol described in the Journal Officiel de la République Francaise [Official Journal of the French Republic] of Feb. 21, 1982.

Compound | Degree of moisturization of the skin measured with Hydrascan, Cycle 1: stratum corneum + superficial epidermis [1] | Degree of moisturization of the skin measured with Hydrascan, Cycle 2: superficial + middle epidermis [1] | Degree of moisturization of the skin measured with Hydrascan, Cycle 3: entire epidermis [1] | effect on the amount of extracellular hyaluronic acid (in words) [2] | percentage increase in the amount of extracellular hyaluronic acid relative to the control group ([2]; concentration 0.01% (w/v)) | percentage increase in the amount of extracellular hyaluronic acid relative to the control group ([2]; concentration 0.1% (w/v)) | effect on the neosynthesis of ceramides 1 and 2 (in words) [3] | effect on the degree of moisturization of the epidermis (in words) [1] | percentage increase in the amount of ceramide 1 relative to the control group [3] [%] | percentage increase in the amount of ceramide 2 relative to the control group [3] [%] | PCI index [4] | Irritation classification [4] | increase in degree of moisturization greater than that obtained with glycerol ([1]; difference to glycerol across the epidermal layers) [%]
OC[C@@H](O)[C@@H](O)CO [Erythritol, erythritol] | +9% | +9% | +9% | no effect | <10% | <10% |  |  |  |  |  |  | 
OCC(O)CO [Glycerol, glycerol] |  |  |  | no effect |  |  | not observed |  |  |  |  |  | 
OC[C@@H](O)[C@H](O)[C@@H](O)CO [Xylitol, xylitol] | <5% | <5% | <5% | no effect | <10% | <10% |  | no effect |  |  |  |  | 
O=C[C@H](O)[C@@H](O)[C@H](O)CO [Xylose, xylose] | <5% | <5% | <5% |  |  |  |  | no moisturizing effectiveness |  |  |  |  | 
EGF: Epidermal growth factor, known to increase the synthesis of ceramides, reference molecule for this test |  |  |  |  |  |  | act, but less effectively |  | 166.1 | 152.3 |  |  | 
Erythrityl Glucoside [Example 2] | +18% | +11% | +12% |  | +64% | <10% |  |  |  |  | 0 | Nonirritant | 
Glyceryl Glucoside [Comparative example] | <5% | <5% | <5% | does not increase | <10% | <10% |  |  |  |  | 0 | Nonirritant | 
Xylityl Glucoside [Example 1] | +28% | +33% | +30% | increase | +158% | +161% | significantly increases | very substantially increases | 295.7 | 236.5 | 0 | Nonirritant | 14 to 20
